In patent US4985409A, “Adenosine derivatives and pharmaceutical composition thereof” (Nippon Zoki Pharmaceutical Co., Ltd., priority 1989, dated 1991):

How the values were obtained:
[1] = tested on: spontaneously hypertensive rats (SHR); assay: Antihypertensive activity (blood pressure in spontaneously hypertensive rats, oral); format: in vivo; settings: mean ±S.E.
Protocol: The test compounds, which were dissolved or suspended in 0.5% C.M.C. aqueous solution, were orally administered to groups of 3 spontaneously hypertensive rats (SHR), 33 to 36 weeks old, which were fasted for 20 hours before drug administration. Blood pressure was measured before and 2 hours after the administration of the test drug.

[2] = Acute toxicity test (oral LD50, death rate for 14 days); settings: mouse, in vivo, ddY-strain male mice
Protocol: The test compounds of the present invention, which were dissolved or suspended in 0.5% carboxymethylcellulose (C.M.C.) aqueous solution, were orally administered to groups of 2 to 5 ddY-strain male mice, and the LD50 values were calculated based on the death rate for 14 days thereafter.

[3] = Rattus norvegicus, 2 hours after oral 0.3 mg/kg, read-out: Blood pressure (Decrease %)
[4] = Rattus norvegicus, 2 hours after oral 3 mg/kg, read-out: Blood pressure (Decrease %)

Row | SMILES | Blood pressure 2 hrs ([1]; 2 hours after oral 3 mg/kg) [mmHg] | inhibition in vivo at 3 mg/kg [1, 4] [%] | LD50 at 336 h [2] [mg/kg] | other results
1 | CO[C@@H]1[C@H](O)[C@@H](CO)O[C@H]1n1cnc2c(NC3CCCC3)ncnc21 [Compound 1, N^6-cyclopentyl-2'-O-methyladenosine] | – | – | – | Blood pressure 2 hrs ([1]; 2 hours after oral 0.3 mg/kg): 98 ± 8 mmHg; inhibition in vivo at 0.3 mg/kg [1, 3]: 56.5 ± 5.5%
2 | CO[C@@H]1[C@H](O)[C@@H](CO)O[C@H]1n1cnc2c(NC3CCCCC3)ncnc21 [Compound 2, N^6-cyclohexyl-2'-O-methyladenosine] | – | – | – | Blood pressure 2 hrs ([1]; 2 hours after oral 0.3 mg/kg): 129 ± 8 mmHg; inhibition in vivo at 0.3 mg/kg [1, 3]: 37.5 ± 1.7%
3 | CO[C@@H]1[C@H](O)[C@@H](CO)O[C@H]1n1cnc2c(NCC(c3ccccc3)c3ccccc3)ncnc21 [Compound 5, N^6-(2,2-diphenylethyl)-2'-O-methyladenosine] | 148 ± 19 | 30 ± 8.4 | – | –
4 | CO[C@@H]1[C@H](O)[C@@H](CO)O[C@H]1n1cnc2c(NCc3cccc4ccccc34)ncnc21 [Compound 8, N^6-(1-naphthyl)methyl-2'-O-methyladenosine] | 140 ± 7 | 36.2 ± 5.7 | 230 | –
5 | CO[C@@H]1[C@H](O)[C@@H](CO)O[C@H]1n1cnc2c(NC3CCc4ccccc43)ncnc21 (stereo partly shown) [Compound 11, N^6-(2,3-dihydro-1H-indene-1-yl)-2'-O-methyladenosine] | 133 ± 21 | 41.3 ± 7 | 450 | –
6 | CO[C@@H]1[C@H](O)[C@@H](CO)O[C@H]1n1cnc2c(NC3Cc4ccccc4C3)ncnc21 [Compound 12, N^6-(2,3-dihydro-1H-indene-2-yl)-2'-O-methyladenosine] | – | – | – | Blood pressure 2 hrs ([1]; 2 hours after oral 10 mg/kg): 164 ± 5 mmHg; inhibition in vivo at 10 mg/kg ([1]; Rattus norvegicus, 2 hours after oral 10 mg/kg, read-out: Blood pressure (Decrease %)): 22.7 ± 2.2%
7 | CO[C@@H]1[C@H](O)[C@@H](CO)O[C@H]1n1cnc2c(NC3CCCc4ccccc43)ncnc21 (stereo partly shown) [Compound 16, N^6-(1-tetrahydronaphthyl)-2'-O-methyladenosine] | 109 ± 9 | 47.2 ± 4.2 | 230 | –
8 | CO[C@@H]1[C@H](O)[C@@H](CO)O[C@H]1n1cnc2c(NC3CCc4ccccc4C3)ncnc21 (stereo partly shown) [Compound 17, N^6-(2-tetrahydronaphthyl)-2'-O-methyladenosine] | 187 ± 7 | 14.5 ± 1.9 | – | –
9 | CO[C@@H]1[C@H](O)[C@@H](CO)O[C@H]1n1cnc2c(NC3CCOc4ccccc43)ncnc21 (stereo partly shown) [Compound 24, N^6-(4-chromanyl)-2'-O-methyladenosine] | – | – | 250 | Blood pressure 2 hrs ([1]; 2 hours after oral 1 mg/kg): 98 ± 15 mmHg; inhibition in vivo at 1 mg/kg ([1]; Rattus norvegicus, 2 hours after oral 1 mg/kg, read-out: Blood pressure (Decrease %)): 55.4 ± 5.6%
